Test results published in paper PMC12520178, “Turn-engineering tunes the conformational rigidity of β-hairpin AMPs in achieving membrane selectivity and killing drug-resistant ESKAPE pathogens” (Chemical Science, 2025).
Values after ≈ are worked out from the molar mass of the structure shown. Where a SMILES comes first, the peptide text is derived from it. [ ]: non-standard residue; d: D form. NMeR = CN[C@@H](CCCNC(=N)N)C(=O)O; dNMeR = CN[C@H](CCCNC(=N)N)C(=O)O

Legend:
human red blood cells = settings: red cells of human
Acinetobacter baumannii = type: cell-based
Klebsiella pneumoniae = type: cell-based
Staphylococcus aureus = test: microbe, parasite or virus in culture; type: cell-based
Pseudomonas aeruginosa = type: cell-based
Escherichia coli = type: cell-based

| Compound | MHC10 (μM), minimum hemolytic concentration (human red blood cells) | MIC (μM) ab (Acinetobacter baumannii) | MIC (μM) kp (Klebsiella pneumoniae) | MIC (μM) sa (Staphylococcus aureus) | MIC (μM) pa (Pseudomonas aeruginosa) | MIC90 (Escherichia coli) | MIC (μM) ec (Escherichia coli) |
| --- | --- | --- | --- | --- | --- | --- | --- |
| CC(C)C[C@H](NC(=O)[C@H](CCCNC(=N)N)NC(=O)CNC(=O)CNC(=O)[C@@H](N)CCCNC(=N)N)C(=O)N[C@H](C(=O)N[C@@H](Cc1ccc(O)cc1)C(=O)N[C@H](C(=O)N[C@@H](CCCNC(=N)N)C(=O)N[C@@H](CCCNC(=N)N)C(=O)N[C@@H](CCCNC(=N)N)C(=O)N[C@@H](Cc1ccccc1)C(=O)N[C@H](C(=O)N[C@H](C(=O)N[C@H](C(=O)N[C@H](C(=O)NCC(=O)N[C@@H](CCCNC(=N)N)C(N)=O)C(C)C)[C@@H](C)O)C(C)C)[C@@H](C)O)[C@@H](C)O)[C@@H](C)O [2c] (H-RGGRLTYTRRRFTVTVGR-NH2) | >200 µM | 3.1 µM (≈ 6.67 µg/mL) | 3.1 µM (≈ 6.67 µg/mL) | 6.3 µM (≈ 13.6 µg/mL) | 3.1 µM (≈ 6.67 µg/mL) | 1 µM (≈ 2.15 µg/mL) | – |
| CC(C)C[C@H](NC(=O)[C@H](CCCNC(=N)N)NC(=O)CNC(=O)CNC(=O)[C@@H](N)CCCNC(=N)N)C(=O)N[C@H](C(=O)N[C@@H](Cc1ccc(O)cc1)C(=O)N[C@H](C(=O)N[C@@H](CCCNC(=N)N)C(=O)N[C@H](C)C(=O)N(C)[C@@H](CCCNC(=N)N)C(=O)N[C@@H](Cc1ccccc1)C(=O)N[C@H](C(=O)N[C@H](C(=O)N[C@H](C(=O)N[C@H](C(=O)NCC(=O)N[C@@H](CCCNC(=N)N)C(N)=O)C(C)C)[C@@H](C)O)C(C)C)[C@@H](C)O)[C@@H](C)O)[C@@H](C)O [2d] (H-RGGRLTYTR[dA][NMeR]FTVTVGR-NH2) | 100 µM | 0.4 µM (≈ 0.832 µg/mL) | 0.8 µM (≈ 1.66 µg/mL) | 3.1 µM (≈ 6.45 µg/mL) | 1.6 µM (≈ 3.33 µg/mL) | 0.4 µM (≈ 0.832 µg/mL) | – |
| CC(C)C[C@@H](NC(=O)[C@@H](CCCNC(=N)N)NC(=O)CNC(=O)CNC(=O)[C@H](N)CCCNC(=N)N)C(=O)N[C@@H](C(=O)N[C@H](Cc1ccc(O)cc1)C(=O)N[C@@H](C(=O)N[C@H](CCCNC(=N)N)C(=O)N[C@@H](C)C(=O)N(C)[C@H](CCCNC(=N)N)C(=O)N[C@H](Cc1ccccc1)C(=O)N[C@@H](C(=O)N[C@@H](C(=O)N[C@@H](C(=O)N[C@@H](C(=O)NCC(=O)N[C@H](CCCNC(=N)N)C(N)=O)C(C)C)[C@H](C)O)C(C)C)[C@H](C)O)[C@H](C)O)[C@H](C)O [2f] (H-[dR]GG[dR][dL][dT][dY][dT][dR]A[dNMeR][dF][dT][dV][dT][dV]G[dR]-NH2) | >200 µM | 2.3 µM (≈ 4.79 µg/mL) | 3.1 µM (≈ 6.45 µg/mL) | 2.3 µM (≈ 4.79 µg/mL) | 1.6 µM (≈ 3.33 µg/mL) | 0.4 µM (≈ 0.832 µg/mL) | 0.4 µM (≈ 0.832 µg/mL) |
| CC(C)[C@H](NC(=O)[C@H](CCCNC(=N)N)NC(=O)[C@H](Cc1ccccc1)NC(=O)[C@@H](NC(=O)[C@H](Cc1c[nH]c2ccccc12)NC(=O)[C@H](CCCNC(=N)N)NC(=O)[C@@H](N)CCCNC(=N)N)[C@@H](C)O)C(=O)N[C@H](C(=O)N[C@@H](Cc1ccc(O)cc1)C(=O)N[C@@H](CCCNC(=N)N)C(=O)NCC(=O)N[C@@H](Cc1ccccc1)C(=O)N[C@H](C(=O)N[C@@H](Cc1ccc(O)cc1)C(=O)N[C@@H](CCCNC(=N)N)C(=O)N[C@@H](CCCCN)C(=O)N[C@H](C(=O)N[C@@H](CCCNC(=N)N)C(N)=O)[C@@H](C)O)[C@@H](C)O)[C@@H](C)O [3c] (H-RRWTFRVTYRGFTYRKTR-NH2) | 100 µM | 3.1 µM (≈ 7.59 µg/mL) | 6.3 µM (≈ 15.4 µg/mL) | 6.3 µM (≈ 15.4 µg/mL) | 6.3 µM (≈ 15.4 µg/mL) | 1.9 µM (≈ 4.65 µg/mL) | – |
| CC(C)[C@H](NC(=O)[C@H](CCCNC(=N)N)NC(=O)[C@H](Cc1ccccc1)NC(=O)[C@@H](NC(=O)[C@H](Cc1c[nH]c2ccccc12)NC(=O)[C@H](CCCNC(=N)N)NC(=O)[C@@H](N)CCCNC(=N)N)[C@@H](C)O)C(=O)N[C@H](C(=O)N[C@@H](Cc1ccc(O)cc1)C(=O)N[C@H](C)C(=O)N(C)[C@@H](CCCNC(=N)N)C(=O)N[C@@H](Cc1ccccc1)C(=O)N[C@H](C(=O)N[C@@H](Cc1ccc(O)cc1)C(=O)N[C@@H](CCCNC(=N)N)C(=O)N[C@@H](CCCCN)C(=O)N[C@H](C(=O)N[C@@H](CCCNC(=N)N)C(N)=O)[C@@H](C)O)[C@@H](C)O)[C@@H](C)O [3d] (H-RRWTFRVTY[dA][NMeR]FTYRKTR-NH2) | 50 µM | 0.8 µM (≈ 1.98 µg/mL) | 2.4 µM (≈ 5.95 µg/mL) | 3.1 µM (≈ 7.68 µg/mL) | 0.4 µM (≈ 0.991 µg/mL) | 0.4 µM (≈ 0.991 µg/mL) | 0.4 µM (≈ 0.991 µg/mL) |
| CC(C)[C@@H](NC(=O)[C@@H](CCCNC(=N)N)NC(=O)[C@@H](Cc1ccccc1)NC(=O)[C@H](NC(=O)[C@@H](Cc1c[nH]c2ccccc12)NC(=O)[C@@H](CCCNC(=N)N)NC(=O)[C@H](N)CCCNC(=N)N)[C@H](C)O)C(=O)N[C@@H](C(=O)N[C@H](Cc1ccc(O)cc1)C(=O)N[C@@H](C)C(=O)N(C)[C@H](CCCNC(=N)N)C(=O)N[C@H](Cc1ccccc1)C(=O)N[C@@H](C(=O)N[C@H](Cc1ccc(O)cc1)C(=O)N[C@H](CCCNC(=N)N)C(=O)N[C@H](CCCCN)C(=O)N[C@@H](C(=O)N[C@H](CCCNC(=N)N)C(N)=O)[C@H](C)O)[C@H](C)O)[C@H](C)O [3f] (H-[dR][dR][dW][dT][dF][dR][dV][dT][dY]A[dNMeR][dF][dT][dY][dR][dK][dT][dR]-NH2) | 100 µM | 1.6 µM (≈ 3.96 µg/mL) | 3.1 µM (≈ 7.68 µg/mL) | 1.2 µM (≈ 2.97 µg/mL) | 1.6 µM (≈ 3.96 µg/mL) | 0.4 µM (≈ 0.991 µg/mL) | 0.4 µM (≈ 0.991 µg/mL) |
| CC[C@H](C)[C@H](NC(=O)CNC(=O)[C@H](CCCNC(=N)N)NC(=O)[C@H](Cc1ccc(O)cc1)NC(=O)[C@@H](NC(=O)[C@@H](NC(=O)[C@H](CCCNC(=N)N)NC(=O)[C@H](Cc1ccccc1)NC(=O)[C@@H](NC(=O)[C@H](Cc1c[nH]c2ccccc12)NC(=O)[C@@H](N)CCCCN)[C@@H](C)O)C(C)C)[C@@H](C)O)C(=O)N[C@H](C(=O)N[C@@H](Cc1ccc(O)cc1)C(=O)N[C@@H](CCCNC(=N)N)C(=O)N[C@@H](CCCNC(=N)N)C(=O)N[C@H](C(=O)N[C@@H](CCCNC(=N)N)C(N)=O)[C@@H](C)O)[C@@H](C)O [4c] (H-KWTFRVTYRGITYRRTR-NH2) | 100 µM | 1.6 µM (≈ 3.62 µg/mL) | 6.3 µM (≈ 14.2 µg/mL) | 12.5 µM (≈ 28.2 µg/mL) | 6.3 µM (≈ 14.2 µg/mL) | 2.2 µM (≈ 4.97 µg/mL) | – |
| CC[C@H](C)[C@H](NC(=O)[C@H](CCCNC(=N)N)N(C)C(=O)[C@@H](C)NC(=O)[C@H](Cc1ccc(O)cc1)NC(=O)[C@@H](NC(=O)[C@@H](NC(=O)[C@H](CCCNC(=N)N)NC(=O)[C@H](Cc1ccccc1)NC(=O)[C@@H](NC(=O)[C@H](Cc1c[nH]c2ccccc12)NC(=O)[C@@H](N)CCCCN)[C@@H](C)O)C(C)C)[C@@H](C)O)C(=O)N[C@H](C(=O)N[C@@H](Cc1ccc(O)cc1)C(=O)N[C@@H](CCCNC(=N)N)C(=O)N[C@@H](CCCNC(=N)N)C(=O)N[C@H](C(=O)N[C@@H](CCCNC(=N)N)C(N)=O)[C@@H](C)O)[C@@H](C)O [4d] (H-KWTFRVTY[dA][NMeR]ITYRRTR-NH2) | 100 µM | 0.8 µM (≈ 1.83 µg/mL) | 1.6 µM (≈ 3.66 µg/mL) | 3.1 µM (≈ 7.09 µg/mL) | 1.6 µM (≈ 3.66 µg/mL) | 0.4 µM (≈ 0.915 µg/mL) | – |
